In patent publication US20240270762A1, “PENICILLIN-BINDING PROTEIN INHIBITORS” (priority 2021, published 2024):
Converted amounts (≈) assume the structure as drawn.

How the values were obtained:
E. coli AG100 = assay: microbe, parasite or virus in culture; format: cell-based; settings: Escherichia coli, AG100, read-out: MIC E. coli AG100
E. coli 901C = assay: microbe, parasite or virus in culture; format: cell-based; settings: Escherichia coli, read-out: MIC E. coli 901C
N. gonorrhoeae WHO Z = assay: Liquid broth MIC in Fastidious broth; settings: Neisseria gonorrhoeae, read-out: Minimum Inhibitory Concentration (MIC), N. gonorrhoeae WHO Z
P. aeruginosa ATCC 27853 = assay: microbe, parasite or virus in culture; format: cell-based; settings: Pseudomonas aeruginosa, ATCC27853, read-out: MIC P. aeruginosa ATCC 27853
K. pneumoniae UMM = assay: microbe, parasite or virus in culture; format: cell-based; settings: Klebsiella pneumoniae, read-out: MIC K. pneumoniae UMM
A. baumannii ATCC 19606 = assay: microbe, parasite or virus in culture; format: cell-based; settings: Acinetobacter baumannii, ATCC19606, read-out: MIC, A. baumannii ATCC 19606
A. baumannii CDC-0083 = assay: microbe, parasite or virus in culture; format: cell-based; settings: Acinetobacter baumannii, CDC0083, read-out: MIC, A. baumannii CDC-0083
[1] = tested on: B. thailandensis ATCC 700388; assay: microbe, parasite or virus in culture; format: cell-based; settings: Burkholderia thailandensis, ATCC700388, read-out: Minimum inhibitory concentration (MIC), B. thailandensis ATCC 700388
[2] = target: T1, PBP3 from Acinetobacter baumannii (ATCC 19606) (Acinetobacter baumannii, UniProt A0ABX6CK25); assay: Bocillin-FL fluorescence polarization competition binding, A. baumannii PBP3; settings: fluorescence polarization competition binding assay using Bocillin-FL; read-out: A. baumannii PBP3 Potency
T1 sequence (A0ABX6CK25 64-610): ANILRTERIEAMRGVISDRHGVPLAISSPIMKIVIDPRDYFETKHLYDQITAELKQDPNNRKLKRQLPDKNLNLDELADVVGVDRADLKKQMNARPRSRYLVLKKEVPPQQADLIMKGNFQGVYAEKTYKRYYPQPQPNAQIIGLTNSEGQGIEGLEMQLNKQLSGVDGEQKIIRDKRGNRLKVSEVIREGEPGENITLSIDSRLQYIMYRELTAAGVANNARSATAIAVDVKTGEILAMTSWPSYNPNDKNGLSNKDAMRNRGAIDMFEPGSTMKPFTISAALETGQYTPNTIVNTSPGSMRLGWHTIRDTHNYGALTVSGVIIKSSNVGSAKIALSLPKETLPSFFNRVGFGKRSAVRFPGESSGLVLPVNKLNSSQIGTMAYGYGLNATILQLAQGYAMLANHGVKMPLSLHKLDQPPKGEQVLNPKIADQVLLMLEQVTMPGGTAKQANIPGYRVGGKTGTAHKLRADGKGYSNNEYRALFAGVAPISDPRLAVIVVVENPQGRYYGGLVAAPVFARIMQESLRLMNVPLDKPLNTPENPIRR
Excerpt: To determine the ability of boronic acid-based test PBP inhibitors to bind Penicillin Binding Proteins (PBPs), Bocillin-FL (fluorescently-labeled penicillin V; ThermoFisher Scientific) was used in a fluorescence polarization (FP) competition binding assay to assess inhibitor binding to PBP3 from Escherichia coli (K-12), PBP3 from Pseudomonas aeruginosa (PAO1), PBP1a and PBP3 from Acinetobacter baumannii (ATCC 19606), and PBP2 from Neisseria gonorrhoeae (FA19). PBPs were cloned and purified as described previously (E. coli PBP3, King, D. T, et al., ACS Infectious Diseases 2015, 1, 175-184; P. aeruginosa PBP3, Han et. al., PNAS 2010, 107 (51), 22002-22007; A. baumannii PBPs, Penwell et. al., Antimicrob. Agents Chemother. 2015, 59 (3), 1680-1689; N. gonorrhoeae PBP2, Singh et. al., J. Biol. Chem. 2019, 294 (38), 14020-14032). To establish assay conditions for competition binding, enzyme titration/saturation binding experiments were initially performed. Bocillin-FL was prepared at 0.2 μM in a buffer comprised of 50 mM Hepes (pH 8.0), 300 mM NaCl and 10% (v/v) glycerol for reactions with E. coli, P. aeruginosa and N. gonorrhoeae PBPs, and 25 mM Tris (pH 8.0), 200 mM NaCl, 10% (v/v) glycerol and 0.005% (v/v) Tween 20 for reactions with A. baumannii PBPs. Saturation binding was performed by mixing 40 μl of PBP solutions ranging in concentrations from 0-24 μM with 40 μl of the 0.2 μM Bocillin-FL solution, in individual wells of a black 384-well microplate. FP was measured immediately upon mixing (Excitation, 490 nm; Emission, 520 nm; g-factor, 0.96), using a Cytation3 (BioTek) microplate reader and measured continuously for up to 120 minutes. The FP response stabilized after 15 minutes for P. aeruginosa and A. baumannii PBP3, 30 minutes for E. coli PBP3 and A. baumannii PBP1a, and less than 1 minute for N. gonorrhoeae PBP2. […] The competition binding assay (80 μl final volume) was validated using beta-lactams and PBPs at final concentrations of: 1.5 μM for E. coli PBP3; 0.75 μM for P. aeruginosa PBP3; 1 μM for A. baumannii PBP1a; 0.2 μM for A. baumannii PBP3; and 0.25 μM for N. gonorrhoeae PBP2. Bocillin-FL was at 0.1 μM (0.05 μM with A. baumannii PBP1a) and beta-lactam concentrations ranged from 0-1,000 μM. E. coli PBP3 was incubated with increasing concentrations of ampicillin in a black 384-well microplate (Corning) for 30 minutes. P. aeruginosa PBP3 was incubated for 15 minutes with aztreonam, whereas A. baumannii PBP1a and PBP3 were incubated for 15 minutes with meropenem, and then Bocillin-FL was added followed immediately by the FP measurement for up to 60 minutes. […] The beta-lactam potency was reported as the concentration of beta-lactam required to reduce the amount of PBP bound-Bocillin-FL by 50% (EC50). […] The EC50 of aztreonam was determined to be <0.5 μM for P. aeruginosa PBP3. […] Binding assays for boronic acid PBP inhibitors were performed in an identical fashion for the respective PBPs.

P. aeruginosa ATCC 35151 = assay: microbe, parasite or virus in culture; format: cell-based; settings: Pseudomonas aeruginosa, ATCC35151, read-out: Minimum inhibitory concentration, P. aeruginosa ATCC 35151
P. aeruginosa CDC-0110 = assay: microbe, parasite or virus in culture; format: cell-based; settings: Pseudomonas aeruginosa, CDC0110, read-out: Minimum inhibitory concentration, P. aeruginosa CDC-0110

Structure (SMILES) | MIC (E. coli AG100) [µg/mL] | MIC (E. coli 901C) [µg/mL] | MIC (N. gonorrhoeae WHO Z) [µg/mL] | MIC (P. aeruginosa ATCC 27853) [µg/mL] | MIC (K. pneumoniae UMM) [µg/mL] | MIC (A. baumannii ATCC 19606) [µg/mL] | MIC (A. baumannii CDC-0083) [µg/mL] | MIC [1] [µg/mL] | IC50 [2] [µM] | MIC (P. aeruginosa ATCC 35151) [µg/mL] | MIC (P. aeruginosa CDC-0110) [µg/mL]
Nc1ncc(C(=O)N[C@@H](C(=O)N[C@H]2Cc3cccc(C(=O)O)c3OB2O)c2ccc(P(=O)(O)O)cc2)s1 (racemic) [Example 50, (R)-3-((S)-2-(2-aminothiazole-5-carboxamido)-2-(4-phosphonophenyl)acetamido)-2-hydroxy-3,4-dihydro-2H-benzo[e][1,2]oxaborinine-8-carboxylic acid and (R)-3-((R)-2-(2-aminothiazole-5-carboxamido)-2-(4-phosphonophenyl)acetamido)-2-hydroxy-3,4-dihydro-2H-benzo[e][1,2]oxaborinine-8-carboxylic acid] | > 128 | 8 to 16 (≈ 14.6 to 29.3 µM) | 16 to 32 (≈ 29.3 to 58.6 µM) | > 128 | > 128 | > 128 |  |  |  |  | 
Nc1nc(C(=O)N[C@@H](C(=O)N[C@H]2Cc3cccc(C(=O)O)c3OB2O)c2ccc(P(=O)(O)O)cc2)cs1 (racemic) [Example 51, (R)-3-((S)-2-(2-aminothiazole-4-carboxamido)-2-(4-phosphonophenyl)acetamido)-2-hydroxy-3,4-dihydro-2H-benzo[e][1,2]oxaborinine-8-carboxylic acid and (R)-3-((R)-2-(2-aminothiazole-4-carboxamido)-2-(4-phosphonophenyl)acetamido)-2-hydroxy-3,4-dihydro-2H-benzo[e][1,2]oxaborinine-8-carboxylic acid] | > 128 | < 1 | 1 to 2 (≈ 1.83 to 3.66 µM) | > 128 | 32 to 64 (≈ 58.6 to 117 µM) | > 128 |  |  |  |  | 
O=C(O)c1c(F)ccc2c1OB(O)[C@@H](NC(=O)C(NC(=O)N1CCN(Cc3ccc(O)c(O)c3Cl)C(=O)C1=O)c1ccc(P(=O)(O)O)cc1)C2 (stereo partly drawn) [Example 8, (3R)-3-(2-(4-(2-chloro-3,4-dihydroxybenzyl)-2,3-dioxopiperazine-1-carboxamido)-2-(4-phosphonophenyl)acetamido)-7-fluoro-2-hydroxy-3,4-dihydro-2H-benzo[e][1,2]oxaborinine-8-carboxylic acid] |  | < 1 | < 1 | < 1 | 2 to 4 (≈ 2.72 to 5.44 µM) | < 1 | < 1 | < 1 | < 10 | < 1 | < 1
O=C(O)c1c(F)ccc2c1OB(O)[C@@H](NC(=O)C(NC(=O)N1CCN(Cc3ccc(O)c(O)c3Cl)C(=O)C1=O)c1ccc(P(=O)(O)O)c(F)c1)C2 (stereo partly drawn) [Example 23, (3R)-3-(2-(4-(2-chloro-3,4-dihydroxybenzyl)-2,3-dioxopiperazine-1-carboxamido)-2-(3-fluoro-4-phosphonophenyl)acetamido)-7-fluoro-2-hydroxy-3,4-dihydro-2H-benzo[e][1,2]oxaborinine-8-carboxylic acid] |  |  | < 1 |  |  |  | < 1 | < 1 | < 10 | < 1 | < 1
O=C(O)c1cccc2c1OB(O)[C@@H](NC(=O)C(NC(=O)N1CCN(Cc3ccc(O)c(O)c3Cl)C(=O)C1=O)c1ccc(P(=O)(O)O)cc1)C2 (stereo partly drawn) [Example 24, (3R)-3-(2-(4-(2-chloro-3,4-dihydroxybenzyl)-2,3-dioxopiperazine-1-carboxamido)-2-(4-phosphonophenyl)acetamido)-2-hydroxy-3,4-dihydro-2H-benzo[e][1,2]oxaborinine-8-carboxylic acid] |  |  | 1 to 2 (≈ 1.4 to 2.79 µM) |  |  |  | < 1 | < 1 | < 10 | < 1 | < 1
O=C(O)c1c(F)ccc2c1OB(O)[C@@H](NC(=O)C(NC(=O)N1CCN(Cc3cc(F)c(O)c(O)c3Cl)C(=O)C1=O)c1ccc(P(=O)(O)O)cc1)C2 (stereo partly drawn) [Example 45, (3R)-3-(2-(4-(2-chloro-5-fluoro-3,4-dihydroxybenzyl)-2,3-dioxopiperazine-1-carboxamido)-2-(4-phosphonophenyl)acetamido)-7-fluoro-2-hydroxy-3,4-dihydro-2H-benzo[e][1,2]oxaborinine-8-carboxylic acid] |  |  | 1 to 2 (≈ 1.33 to 2.66 µM) |  |  |  | < 1 | < 1 | < 10 | < 1 | < 1
O=C(O)c1c(F)ccc2c1OB(O)[C@@H](NC(=O)C(NC(=O)N1CCN(Cc3ccc(O)c(O)c3Cl)C1=O)c1ccc(P(=O)(O)O)cc1)C2 (stereo partly drawn) [Example 46, (3R)-3-(2-(3-(2-chloro-3,4-dihydroxybenzyl)-2-oxoimidazolidine-1-carboxamido)-2-(4-phosphonophenyl)acetamido)-7-fluoro-2-hydroxy-3,4-dihydro-2H-benzo[e][1,2]oxaborinine-8-carboxylic acid] |  |  | < 1 |  |  |  |  | < 1 | < 10 | < 1 | < 1
O=C(N[C@@H](C(=O)N[C@H]1Cc2cccc(C(=O)O)c2OB1O)c1ccc(P(=O)(O)O)cc1)c1ccc(O)c(O)c1Cl [Example 49, (R)-3-((R)-2-(2-chloro-3,4-dihydroxybenzamido)-2-(4-phosphonophenyl)acetamido)-2-hydroxy-3,4-dihydro-2H-benzo[e][1,2]oxaborinine-8-carboxylic acid] |  |  |  |  |  |  | > 128 | 2 to 4 (≈ 3.39 to 6.77 µM) | < 10 | < 1 | < 1
O=C(NCCN1CCN(C(=O)NC(C(=O)N[C@H]2Cc3ccc(F)c(C(=O)O)c3OB2O)c2ccc(P(=O)(O)O)cc2)C(=O)C1=O)c1ccc(O)c(O)c1Cl (stereo partly drawn) [Example 120, (3R)-3-(2-(4-(2-(2-chloro-3,4-dihydroxybenzamido)ethyl)-2,3-dioxopiperazine-1-carboxamido)-2-(4-phosphonophenyl)acetamido)-7-fluoro-2-hydroxy-3,4-dihydro-2H-benzo[e][1,2]oxaborinine-8-carboxylic acid] |  |  |  |  |  |  | < 1 | < 1 | < 10 | < 1 | < 1
